In patent US10238713B2, “Cyclic tetrapeptides and therapeutic applications thereof” (LODZ UNIVERSITY OF TECHNOLOGY, priority 2010, dated 2019):
Where “and” joins values, the source holds several entries; their conditions need not be identical. Equal entries are not always repeated. Non-standard residues stand in square brackets, D forms with d. Residues, ends and D or L forms follow the SMILES beside them. β3hF = N[C@H](CC(=O)O)Cc1ccccc1

Key:
[1] = tested on: BALB/c mice, contact sensitivity to oxazolone; test: Contact sensitivity to oxazolone in BALB/c mice (ear edema, draining lymph node cells, auricle histology); assay type: in vivo
Experimental: Mice: BALB/c female mice, 8-10 week-old, delivered by the Institute of Laboratory Medicine, Łódź, Poland, were used for the study. The mice were fed a commercial, pelleted food and water ad libitum. The local ethics committee approved the study.
The test was performed according to Noonan et al. (Int. Arch. Allergy Appl. Immunol., 1978, 56, 523-532), with some modifications. Mice were shaved on the abdomen (2×2 cm area) and after 24 h 100 μl of 0.5% oxazolone in acetone was applied to the shaved area. The contact sensitivity reaction was elicited 5 days later by application of 50 μl of 1% oxazolone in acetone on both sides of the ears. Ear edema was measured 48 h later using a spring caliper. The results were presented as antigen-specific increase of ear thickness (i.e. the background (BG) ear thickness of mice was subtracted from the measured thickness).
In the experiment shown, the compound of formula I-A was applied topically as a 0.1% ointment on both sides of the ears (total volume of 50 μl per ear), at 24 h and 26 h after elicitation of the reaction with the second dose of oxazolone. Reference compounds were used in a similar fashion in the form of commercially available preparations.
Superficial parotid, mandibular and accessory mandibular lymph nodes were isolated, homogenized by pressing against a stainless screen into phosphate buffered solution (PBS), washed twice and re-suspended in PBS containing 0.2% Trypan blue. The total and nonviable cell numbers were determined using a light microscope and Bürker's hemocytometer. Mice treated only with the eliciting dose of antigen served as a background control.
The auricles were fixed in 4% formalin solution for 48 h, washed for 24 h, dehydrated in an alcohol series and embedded in paraffin. The paraffin blocks were sliced in a Micron HM310 microtome into 6 μm sections. The sections were stained with haematoxylin and eosin and with toluidine blue. The histological analysis was performed in a Nikon Eclipse 801 light microscope. On the histological slides containing cross-sections of auricles, the morphometric estimations of neutrophils, macrophages, lymphocytes and mast cells in the perivascular and subepithelial connective tissue were performed. The cells were counted on the area of 0.07 mm^2 at 400× magnification. Morphometric analysis was done with the aid of imagine software NIS-Elements (Nikon). For every examined group, 25 enumerations of neutrophils, macrophages, lymphocytes and mast cells were carried out.

[2] = tested on: PHA-induced proliferation of human peripheral blood mononuclear cells (PBMC); test: Proliferative response of PBMC to PHA (MTT); assay type: cell-based; settings: 1 μg/ml, four-day incubation; FIGS. 9A-9B; listed as 4B8M
[3] = tested on: BALB/c mice, immune response to TDI; test: Toluene diisocyanate (TDI)-induced ear inflammation in BALB/c mice; assay type: in vivo
Experimental: BALB/c female mice, 8-10 weeks old, were delivered by the Institute of Laboratory Medicine, Łódź, Poland. The mice were fed a commercial, pelleted food and water ad libitum. The local ethics committee approved the study.
The test was performed according to Yamamoto, Eur. J. Pharmacol., 2006, 550, 166-172, with minor modifications. Mice were shaved on the abdomen (2×2 cm area) and after 24 h 100 μl of 3% TDI in acetone was applied through 3 consecutive days. After 14 days the reaction was elicited by application of 50 μl of 0.3% TDI on both sides of the ears. The procedure was repeated 5 times every 3 days. Ear thickness was measured using a spring caliper (Mitutoyo) 5 h and 24 h after each challenge with TDI.
Compound I-A was applied topically in the form of 0.1% ointment on both sides of the ears (total volume of 100 μl-50 μl per ear), one hour after each challenge with TDI. The reference drugs were applied in a similar way.
Superficial parotid, mandibular and accessory mandibular lymph nodes were isolated, homogenized by pressing against a stainless screen into PBS, washed 2× with PBS and re-suspended in PBS containing 0.2% Trypan blue. The total and nonviable cell numbers were counted using a light microscope and Bürker's hemocytometer.
Mice were subjected to halothane anesthesia and bled from the retro-orbital plexus, followed by the cervical dislocation. The number of blood leukocytes was determined by dilution of blood in Turk's solution and counting the cells in a hemocytometer. Blood smears were prepared on microscope glass, dried and stained with Giemsa and May-Grünwald reagents. The smears were subsequently reviewed histologically. The cell numbers were presented per 1 μl and the blood cell compositions as a percentage of a given cell type.
Mice were given 1 mg of Evans blue in 0.2 ml of 0.9% NaCl, intravenously. After 30 min mice were sacrificed, the ears were cut off, weighed and immersed in 50 μl of 1M KOH for 18 h at 37° C. The dye was extracted from the ears using 450 μl of 0.2 M phosphate acid and acetone (5:13 ratio). The samples were centrifuged at 3,000 rpm for 15 min. The optical densities (OD) of the supernatants were measured at 630 nm. The amount of Evans blue (g/ml) was determined based on a standard curve. The results were presented as the amount of Evans blue per 100 mg of wet tissue. Mice treated only with the eliciting dose of antigen served as a background control.
The auricles were fixed in 4% formalin solution for 48 h, washed for 24 h, dehydrated in an alcohol series and embedded in paraffin. The paraffin blocks were sliced in a Micron HM310 microtome into […]. The sections were stained with haematoxylin and eosin and with toluidine blue. Histological analysis was performed using a Nikon Eclipse 801light microscope. Morphometric estimations of neutrophils, macrophages, lymphocytes and mast cells in the perivascular and subepithelial connective tissue were performed on the histological slides containing cross-sections of auricles. Cells were counted on an area of 0.07 mm^2 at 400× magnification. Morphometric analysis was performed using an imagine software NIS-Elements (Nikon). For every preparation examined, 25 enumerations of neutrophils, macrophages, lymphocytes and mast cells were carried out.

O=C1C[C@H](Cc2ccccc2)NC(=O)[C@@H]2CCCN2C(=O)[C@@H]2CCCN2C(=O)[C@H](Cc2ccccc2)N1 [I-A] (cyclo(FPP[β3hF]))
toxic effect on draining lymph node cells (proportions of viable and dead cells) ([1]; topical treatment, compared to control non-treated mice, FIG. 3): negligible toxic effect
number of cells in the draining lymph nodes ([1]; topical treatment, FIG. 2): decreased the numbers of lymphocytes in the draining lymph nodes to the level registered in non-sensitized mice
cell number and composition in the inflamed auricles (histology) ([1]; topical treatment, FIG. 4): almost entirely reversed the changes observed in control mice
inhibition of the ear edema (antigen-specific increase of ear thickness) ([1]; topical, I-A as 0.1% ointment, references as commercial preparations, 24 h and 26 h after elicitation, FIG. 1): about 80%
PHA-induced PBMC proliferation, P vs DMSO at appropriate dilution [2]: 0.9995 and 0.9919
ear thickness, P vs Control ([3]; 5 h after challenge, Day 14, topical 1 h after each TDI challenge, FIG. 10A): 0.0005
ear thickness, P vs Control ([3]; 5 h after challenge, Day 17, FIG. 10A): 0.0001
ear thickness, P vs Control ([3]; 5 h after challenge, Day 20, FIG. 10A): 0.0001
ear thickness, P vs Control ([3]; 5 h after challenge, Day 23, FIG. 10A): 0.0001
ear thickness, P vs Control ([3]; 5 h after challenge, Day 27, FIG. 10A): 0.0001
ear thickness, P vs Control ([3]; 24 h after challenge, Day 14, FIG. 10B): 0.0001
ear thickness, P vs Control ([3]; 24 h after challenge, Day 17, FIG. 10B): 0.0001
ear thickness, P vs Control ([3]; 24 h after challenge, Day 20, FIG. 10B): 0.0006
ear thickness, P vs Control ([3]; 24 h after challenge, Day 23, FIG. 10B): 0.0001
ear thickness, P vs Control ([3]; 24 h after challenge, Day 27, FIG. 10B): 0.0001
permeability of capillary blood vessels in the Evans blue test, P vs Control ([3]; 24 h after the fifth challenge with TDI (day 28), FIG. 11): 0.030
total number of cells in the draining lymph nodes, P vs Control ([3]; ANOVA of Kruskal-Wallis, FIG. 12): 0.0001
numbers of circulating leukocytes, P vs Control ([3]; ANOVA, FIG. 13): 0.0001
total number of cells in the draining lymph nodes ([3]; FIG. 12): reduction of the lymph node cell numbers almost to the background levels
blood cell composition, Eosinophils (E), P vs Control ([3]; FIG. 14): 0.0001
blood cell composition, Lymphocytes (L), P vs Control ([3]; FIG. 14): 0.0043
blood picture (neutrophil and eosinophil contents) ([3]; FIG. 14): normalized
auricle Ne (neutrophils), P vs Control ([3]; FIG. 15): 0.0151
cell numbers in the auricles after treatment ([3]; area 0.07 mm^2, cell type not stated, sensitized untreated control: 20 mastocytes, 23 neutrophils, FIG. 15): 14.8 cells per the analyzed area
